The values below come from patent publication US20220175850A1, “COMPOSITIONS AND METHODS FOR CANCER THERAPY” (priority 2019, published 2022).

Assay [1] relates to triple negative breast cancer cells. Description: Tumor marker expression in animal model of triple negative breast cancer, supplement with or without chemotherapeutic drugs. Format: in vivo, mice. On the procedure:
[…] Animals were also treated with taxol, taxol and the supplement in combination, adriamycin, adriamycin and the supplement in combination, avastin, and avastin and the supplement in combination.
FIG. 9A depicts a typical study design for animal model studies of this phenomena. Three different supplement formulations were used that provided low (NFS), mid (NFM-containing 1.5 times the Se content of NFS), and high (NFH, containing twice the Se content of NFS) doses of selenium and fish oil. These supplement formulations were provided in combination with a chemotherapeutic drug (such as Taxol or Adriamycin).
As noted above, nutritional supplements can be provided that include different amounts of selenium (Se), and can also be provided with or used in combination with a chemotherapeutic agent.
CD24 and CD29 are markers that are commonly used to determine degree of stem cell character. […] Mice were also treated with taxol, taxol and the supplement in combination, adriamycin, adriamycin and the supplement in combination, avastin, and avastin and the nutritional supplement in combination. […] As in FIG. 9, nutritional supplements containing low, mid, and high amounts of selenium were provided in combination with either avastin or taxol.

Assay [2] shares this test system. The description is as above. Format: in vivo, mice. To be noted: primary tumor; supplement at low, mid, high dose with Taxol or Adriamycin; drugs alone.
In a further assay the test system is HCC827GR cells. Description: Marker protein expression in Iressa-resistant HCC827GR lung cancer cells. Format: cell-based, human. From the text: The HCC827GR cell line is a lung cancer cell line that is resistant to Iressa.
In assay [3] the test system is A549 human lung cancer sphere cells. Description: Marker protein expression in stem-cell like A549 sphere cells. It is filed as cell-based.
Excerpt: FIG. 7B depicts an exemplary Western blot of PD-L1 expression in stem-cell like sphere cells derived from A549 human lung cancer cells.
Where [4] appears, read: metastatic brain tumor site, different amounts of supplement in combination with Taxol, taxol alone.
The mark [5] stands for this setting: tumor, supplement at low, mid, high doses in combination with taxol or avastin, drug alone.

Turning to `CC(=O)O[C@H]1C(=O)[C@@]2(C)[C@H]([C@H](OC(=O)c3ccccc3)[C@]3(O)C[C@H](OC(=O)[C@H](O)[C@@H](NC(=O)c4ccccc4)c4ccccc4)C(C)=C1C3(C)C)[C@]1(OC(C)=O)CO[C@@H]1C[C@@H]2O` [taxol], in assay [1] (setting [4]), the CD24 expression entry is on record as “no apparent effect”, the CD29 expression result is on record as “no apparent effect”, the MMP-9 expression entry is recorded as “no apparent effect” and the VEGF expression result is reported as “no apparent effect”. In addition, in assay [1] (tumor tissue, supplement with different amounts of selenium co-treated with taxol or avastin, drug alone), the EGFR expression result is listed as “not impacted”. Further, in assay [1] (setting [5]), the PTEN expression entry is given as “increase induced by taxol”, the p-PTEN expression result was “decrease induced by either taxol or avastin” and the p-STAT3 expression entry was “decrease induced by either taxol or avastin”. In assay [2], the PD-1 expression result is listed as “increased slightly” and the PD-L1 expression result was “no apparent effect”.
With `COc1cc2ncnc(Nc3ccc(F)c(Cl)c3)c2cc1OCCCN1CCOCC1` [Iressa], the Axl expression result in the assay with HCC827GR cells (24 hours of treatment, in either the absence or presence of Iressa) is “not reduced”; in the assay with HCC827GR cells (72 hours), “no apparent effect”. Also, in the assay on HCC827GR cells (72 hours), the HSP90 expression result is “no apparent effect”. In addition, in the assay with HCC827GR cells (chemotherapy resistant cancer cells), the PD-L1 expression result is “has no effect”.
As to “avastin: chemotherapeutic agent used in the animal tumor model”, the CXCR4 expression result in assay [1] (tumor tissue, avastin alone or cotherapy with supplement at low, mid, high doses) is given as “little effect”. In addition, in assay [1] (setting [5]), the p-PTEN expression result is on record as “decrease induced by either taxol or avastin” and the p-STAT3 expression result is given as “decrease induced by either taxol or avastin”.
Consider `COc1cccc2c1C(=O)c1c(O)c3c(c(O)c1C2=O)C[C@@](O)(C(=O)CO)C[C@@H]3O[C@H]1C[C@H](N)[C@H](O)[C@H](C)O1` [adriamycin], for which, in assay [2], the PD-1 expression entry is listed as “increased slightly” and the PD-L1 expression entry is given as “no apparent effect”.
On to selenium, for which, in assay [3], the p-HSP27 expression result is “not found” and the vimentin expression entry is given as “not seen”.
